Results reported in PMC6362833 (ACS chemical neuroscience, 2017).
Where “and” joins values, the source holds several entries; their conditions need not be identical. Equal values may be shown once.

Assays:
[1] = target: GST-tagged calmodulin (N-terminally 6X-His-GST-tagged human CaM, residues 1-149) (human) (UniProt P0DP23); experiment: fluorescence polarisation
[2] = CytoTox-Fluor acute cytotoxicity assay; assay type: cell-based; conditions: human, HEK293T cells, pH 7.4
AC8 = AC8 (Homo sapiens, UniProt P40145); experiment: CaM-stimulated AC8 activity in membrane preparations; assay type: biochemical; conditions: for inhibition at 100 µM: read-out: AC8 % inhibition; for potency against AC8 compared with AC1: membrane preparations
Chain of AC8 (P40145 whole entry): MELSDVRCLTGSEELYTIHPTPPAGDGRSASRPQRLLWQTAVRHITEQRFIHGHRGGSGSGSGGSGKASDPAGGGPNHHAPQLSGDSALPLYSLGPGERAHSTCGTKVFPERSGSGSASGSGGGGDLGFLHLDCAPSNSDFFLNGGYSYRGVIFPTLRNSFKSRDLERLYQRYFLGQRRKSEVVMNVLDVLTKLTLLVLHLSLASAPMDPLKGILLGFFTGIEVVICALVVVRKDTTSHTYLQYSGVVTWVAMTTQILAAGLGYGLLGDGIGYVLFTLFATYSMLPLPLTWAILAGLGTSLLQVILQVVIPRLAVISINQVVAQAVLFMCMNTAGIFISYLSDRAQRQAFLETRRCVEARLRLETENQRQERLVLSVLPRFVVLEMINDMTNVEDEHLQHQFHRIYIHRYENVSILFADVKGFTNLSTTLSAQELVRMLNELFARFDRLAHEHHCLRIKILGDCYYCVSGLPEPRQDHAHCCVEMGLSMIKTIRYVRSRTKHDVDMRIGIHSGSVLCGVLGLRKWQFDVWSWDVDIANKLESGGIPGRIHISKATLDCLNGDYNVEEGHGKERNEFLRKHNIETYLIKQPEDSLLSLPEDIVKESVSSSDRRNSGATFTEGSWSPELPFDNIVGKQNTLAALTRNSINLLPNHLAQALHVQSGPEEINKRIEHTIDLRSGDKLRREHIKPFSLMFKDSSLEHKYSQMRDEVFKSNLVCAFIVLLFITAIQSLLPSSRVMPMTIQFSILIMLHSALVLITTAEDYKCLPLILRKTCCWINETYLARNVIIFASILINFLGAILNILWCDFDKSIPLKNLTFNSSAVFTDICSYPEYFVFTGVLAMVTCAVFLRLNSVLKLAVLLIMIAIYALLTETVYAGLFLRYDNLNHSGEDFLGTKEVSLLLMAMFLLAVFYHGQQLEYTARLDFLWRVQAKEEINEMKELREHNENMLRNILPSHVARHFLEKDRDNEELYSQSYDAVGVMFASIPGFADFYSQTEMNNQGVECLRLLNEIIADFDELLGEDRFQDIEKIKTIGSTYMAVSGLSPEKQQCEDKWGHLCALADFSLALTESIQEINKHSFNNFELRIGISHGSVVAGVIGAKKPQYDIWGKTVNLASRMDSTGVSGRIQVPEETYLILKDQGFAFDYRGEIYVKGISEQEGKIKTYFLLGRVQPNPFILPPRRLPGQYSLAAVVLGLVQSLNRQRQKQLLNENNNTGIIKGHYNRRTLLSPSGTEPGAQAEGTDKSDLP
Chain of AC1 (Q08828 whole entry): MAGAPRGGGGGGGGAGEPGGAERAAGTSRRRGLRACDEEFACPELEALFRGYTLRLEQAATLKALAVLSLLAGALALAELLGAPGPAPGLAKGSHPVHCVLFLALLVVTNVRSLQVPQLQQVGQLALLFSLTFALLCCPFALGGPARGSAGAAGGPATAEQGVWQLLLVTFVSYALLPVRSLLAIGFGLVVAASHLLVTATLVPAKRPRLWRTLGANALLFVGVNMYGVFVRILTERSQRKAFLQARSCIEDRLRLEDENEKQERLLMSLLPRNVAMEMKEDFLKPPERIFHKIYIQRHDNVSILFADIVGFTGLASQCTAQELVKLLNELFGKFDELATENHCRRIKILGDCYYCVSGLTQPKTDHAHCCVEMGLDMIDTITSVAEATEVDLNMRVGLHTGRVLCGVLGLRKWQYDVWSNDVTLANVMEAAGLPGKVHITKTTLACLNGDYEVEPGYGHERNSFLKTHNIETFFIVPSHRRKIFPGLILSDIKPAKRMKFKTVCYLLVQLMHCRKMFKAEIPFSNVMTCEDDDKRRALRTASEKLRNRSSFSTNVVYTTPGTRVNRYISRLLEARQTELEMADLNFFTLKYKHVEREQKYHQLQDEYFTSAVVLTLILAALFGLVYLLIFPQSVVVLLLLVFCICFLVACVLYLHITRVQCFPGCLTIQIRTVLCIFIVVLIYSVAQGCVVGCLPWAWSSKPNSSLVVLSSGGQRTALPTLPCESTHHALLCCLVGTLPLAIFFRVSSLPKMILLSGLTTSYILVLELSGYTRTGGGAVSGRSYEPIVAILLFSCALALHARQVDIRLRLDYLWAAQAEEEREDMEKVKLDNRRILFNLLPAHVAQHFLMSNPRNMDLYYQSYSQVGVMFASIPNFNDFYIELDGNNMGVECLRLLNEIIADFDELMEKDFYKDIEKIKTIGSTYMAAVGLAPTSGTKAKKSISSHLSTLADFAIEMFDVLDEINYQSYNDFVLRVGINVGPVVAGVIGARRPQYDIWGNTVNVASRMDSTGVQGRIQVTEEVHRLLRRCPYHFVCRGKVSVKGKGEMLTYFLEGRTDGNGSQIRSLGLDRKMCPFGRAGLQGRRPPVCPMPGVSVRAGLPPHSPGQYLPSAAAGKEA

CaM/AC8-Nt interaction = CaM/AC8-Nt interaction (Homo sapiens, UniProt P0DP23); experiment: Fluorescence polarization; assay type: binding; conditions: for IC50: FP; for slope of concentration-response curve: FP concentration response
HERG potassium channel = conditions: cited from earlier work
[3] = target: (Homo sapiens, UniProt P0DP23); experiment: CaM-stimulated AC1 activity in membrane preparations; assay type: biochemical; conditions: read-out: AC1 % inhibition
AC1 [4] = experiment: as above; assay type: biochemical; conditions: membranes of HEK293 cells stably expressing AC1, CaM-stimulated
HEK-293T cells = experiment: CytoTox-Fluor acute cytotoxicity assay; assay type: cell-based; conditions: 30 min; for effect on cell viability: up to 31.6 μM
L-type Ca^2+ channels = conditions: cited from earlier work
CaM/AC8-C2b interaction = CaM/AC8-C2b interaction (Homo sapiens, UniProt P0DP23); experiment: Fluorescence polarization; assay type: binding; conditions: for IC50: FP; for inhibition of CaM/AC8-C2b relative to EGTA control: maximal inhibition, no detergent
CaM/AC8 complex = CaM/AC8 complex (Homo sapiens, UniProt P0DP23); experiment: AC8/CaM NanoBiT complementation assay in HEK-293T cells; assay type: cell-based, rat AC8; conditions: 30 min pretreatment
AC1 [5] = target: AC1 (Homo sapiens, UniProt Q08828); experiment: CaM-stimulated AC1 activity in membrane preparations; assay type: biochemical
Chain of AC1 (Homo sapiens, UniProt Q08828) (Q08828 whole entry): as above

[6] = AC8-Nt pIC50, 0% Triton, 316 nM GST-CaM, 100 nM Cy5-AC8-Nt, no Triton X-100
[7] = AC8-Nt pIC50, 0.01% Triton, 0.01% Triton X-100
[8] = AC8-C2b pIC50, 0% Triton, 316 nM GST-CaM, 100 nM Cy5-AC8-C2b, no Triton X-100
[9] = AC8-C2b pIC50, 0.01% Triton, 0.01% Triton X-100

Compound | IC50 (AC8) | inhibition at 100 µM (AC8) | IC50 (CaM/AC8-Nt interaction; [6]) | IC50 (CaM/AC8-Nt interaction; [7]) | inhibition at 100 µM [3] | AC1 pIC50 (AC1 [4]) | effect on cell viability (HEK-293T cells) | also measured
unlabeled AC8-C2b peptide (from UniProt P40145 1191-1214) |  |  |  |  |  |  |  | pIC50 [1]: 4.95
CCCCCCCCCCCC[N+](C)(C)CCOc1ccccc1 [domiphen, Domiphen bromide] | 17.4 µM | 104 ± 1% | 14.5 µM | 15.5 µM | 96 ± 4% | 4.55 ± 0.09 |  | viability at 30 min, 31.6 µM [2]: 99%; IC50 at HERG potassium channel (HERG potassium channel): single-digit nanomolar
CC(C)(C)CC(C)(C)c1ccc(OCCOCC[N+](C)(C)Cc2ccccc2)cc1 [benzethonium, Benzethonium chloride] |  |  |  |  |  |  | no negative effect on cell viability | 
CN1CCN(CCCN2c3ccccc3Sc3ccc(C(F)(F)F)cc32)CC1 [TFP, trifluoperazine] |  |  |  |  |  |  | without negatively affecting cell viability | 
CCCCCCCCOc1ccccc1C(=O)Nc1ccc(C(=O)OCC[N+](C)(CC)CC)cc1 [otilonium, otilonium bromide] | 24 µM | 99 ± 1% | 16.6 µM | 33.1 µM | 103 ± 4% | 4.58 ± 0.03 |  | viability at 30 min, 31.6 µM [2]: 77%; slope of concentration-response curve (CaM/AC8-Nt interaction): −3.5 ± 0.2; IC50 at L-type Ca2+ channels (L-type Ca^2+ channels): single-digit micromolar
Clc1ccc(C(c2ccc(Cl)cc2)n2cc[n+](CC(OCc3ccc(Cl)cc3Cl)c3ccc(Cl)cc3Cl)c2)cc1 (stereo not drawn) [CDZ, calmidazolium chloride] | 4.68 µM | 100% | 2.75 µM and 2.82 µM | 2.88 µM | 97 ± 3% | 4.87 ± 0.06 | appreciable cell toxicity at 31.6 μM | inhibition of CaM/AC8-Nt FP (CaM/AC8-Nt interaction; concentration response up to 100 μM, relative to EGTA control): complete inhibition; effect of Triton X-100 on inhibition of CaM/AC8-C2b (CaM/AC8-C2b interaction; 0.01% Triton X-100): Increased inhibition; IC50 (CaM/AC8-C2b interaction; [8]): 3.16 µM; IC50 (CaM/AC8-C2b interaction; [9]): 9.77 µM; inhibition of CaM/AC8-C2b relative to EGTA control (CaM/AC8-C2b interaction): approximately 50%
CCCCC(CC)CNC(=N)NC(=N)NCCCCCCNC(=N)NC(=N)NCC(CC)CCCC (stereo not drawn) [alexidine] | 4.9 µM | 106 ± 2% | 2.14 µM | 1.41 µM | 162 ± 10% | 5.24 ± 0.1 |  | concentration at which cell viability begins to be reduced (HEK-293T cells; HEK-293T): ≥ 10 µM; slope of concentration-response curve (CaM/AC8-Nt interaction): −2.7 ± 0.2; IC50 (CaM/AC8-C2b interaction; [8]): 5.89 µM; IC50 (CaM/AC8-C2b interaction; [9]): 5.89 µM
unlabeled AC8-Nt peptide (from UniProt P40145 30-54) |  |  |  |  |  |  |  | pIC50 [1]: 5.3
CCCCCCCCCCCCCCCC[N+](C)(C)C [cetrimonium, cetrimonium bromide] | 22.4 µM | 102 ± 2% | 11.5 µM | 11.5 µM |  |  |  | NanoBiT potency (CaM/AC8 complex): potencies similar to that observed for CDZ; viability at 30 min, 31.6 µM [2]: 89%; potency against AC8 compared with AC1 (AC8): slightly more potent against AC8 than AC1; IC50 (AC1 [5]): 39.8 µM; inhibition at 100 µM (AC1 [5]; read-out: AC1 % inhibition): 86 ± 7%
NCCCCCCNS(=O)(=O)c1cccc2c(Cl)cccc12 [W7, N-(6-aminohexyl)-5-chloro-1-naphthalenesulfonamide] |  |  |  |  |  |  | without negatively affecting cell viability | 
CCCCCCCCCCCCCCCC[N+](C)(C)CCN(Cc1ccc(OC)cc1)c1ncccn1 [thonzonium, Thonzonium bromide] | 38.9 µM | 91 ± 1% | 5.37 µM | 9.12 µM | 77 ± 6% | 4.20 ± 0.06 | did not adversely affect cell viability | NanoBiT potency (CaM/AC8 complex): potencies similar to that observed for CDZ; potency against AC8 compared with AC1 (AC8): slightly more potent against AC8 than AC1; effect of Triton X-100 on inhibition of CaM/AC8-C2b (CaM/AC8-C2b interaction; 0.01% Triton X-100): Increased inhibition; IC50 (CaM/AC8-C2b interaction; [8]): 10 µM; IC50 (CaM/AC8-C2b interaction; [9]): 12.6 µM; inhibition of CaM/AC8-C2b relative to EGTA control (CaM/AC8-C2b interaction): approximately 50%
